We go through 88 compounds from ChEMBL document CHEMBL2218064, “Structure-activity relationship data for chemical series of antagonists of the P2X7 receptor (Supplementary Bioactivity Data for publication CHEMBL1157114)”.

The target in this test is T1, P2X purinoceptor 7 (Homo sapiens, UniProt Q99572).
T1 sequence (Q99572 whole entry): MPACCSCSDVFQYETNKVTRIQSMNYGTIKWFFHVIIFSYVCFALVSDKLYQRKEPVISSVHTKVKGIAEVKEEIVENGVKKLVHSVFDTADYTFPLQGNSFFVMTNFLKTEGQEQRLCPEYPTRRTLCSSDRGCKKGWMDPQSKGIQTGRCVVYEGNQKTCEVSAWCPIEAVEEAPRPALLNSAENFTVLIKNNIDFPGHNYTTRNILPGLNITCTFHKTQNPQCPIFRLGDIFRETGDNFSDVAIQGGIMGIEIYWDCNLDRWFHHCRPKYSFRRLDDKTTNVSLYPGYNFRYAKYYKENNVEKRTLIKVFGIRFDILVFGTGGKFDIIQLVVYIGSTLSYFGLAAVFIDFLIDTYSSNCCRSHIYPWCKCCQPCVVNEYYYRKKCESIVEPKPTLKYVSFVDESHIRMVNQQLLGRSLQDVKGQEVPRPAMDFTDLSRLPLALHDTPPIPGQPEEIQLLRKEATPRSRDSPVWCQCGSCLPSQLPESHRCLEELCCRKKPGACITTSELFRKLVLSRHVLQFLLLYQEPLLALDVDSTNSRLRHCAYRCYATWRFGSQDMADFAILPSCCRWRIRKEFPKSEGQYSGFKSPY
Kind of test: SUPPLEMENTARY: Inhibition of human P2X7 receptor assessed as inhibition of ethidium bromide accumulation. Same assay as CHEMBL1103860.
A word on the IC50: it is the point on the concentration scale where inhibition reaches its midpoint. In the case of `Cc1nc[nH]c1CN1C[C@@H](C(=O)NCc2ccc(F)c(F)c2Cl)N(C)C1=O`, the IC50 is 200 nM.
The value for `COCCNCCn1nc(C)c(CC(=O)NCc2ccc(F)cc2Cl)c1C` was 126 nM; that for `O=C(c1ccccc1Cl)N1CCn2c(nnc2-c2ncccc2F)C1` was 31.6 nM; that for `Cc1nn(-c2ccccc2)c(C)c1CC(=O)NCc1ccc(F)c(C(F)(F)F)c1` was 316 nM.
The value for `CCN1C(=O)CC[C@H]1C(=O)NCc1cccc(C)c1C` was 100 nM; that for `O=C(NCc1cccc(C(F)(F)F)c1Cl)C1CC(=O)N(Cc2ccccc2)C1` (stereo not drawn) was 316 nM; that for `Cc1cccc(C)c1CNC(=O)Cc1c(C)nn(-c2ccccc2)c1C` was 63.1 nM.
The value for `CN1C(=O)CC[C@H]1C(=O)NCc1ccc(F)c(F)c1Cl` was 39.8 nM; that for `CCN1C(=O)CC[C@H]1C(=O)NCc1ccc(F)c(F)c1Cl` was 7.94 nM.
`CN1C(=O)N(c2cn(C)cn2)C[C@H]1C(=O)NCc1ccc(Cl)cc1Cl`: the IC50 is 7.94 nM.
The value for `CCN1C(=O)CC[C@H]1C(=O)NCc1ccc(Cl)c(Cl)c1` was 251 nM; that for `CCN1C(=O)CC[C@H]1C(=O)NCc1ccccc1C` was 794 nM; that for `Cc1ccc(N2C[C@@H](C(=O)NCc3ccc(F)c(F)c3Cl)N(C)C2=O)cn1` was 31.6 nM.
For the compound `Cc1ncccc1N1C[C@@H](C(=O)NCc2ccc(F)cc2Cl)N(C)C1=O`, the IC50 is 50.1 nM.
The value for `CN1C(=O)N(c2nccc(C(F)(F)F)n2)C[C@H]1C(=O)NCc1cccc(C(F)(F)F)c1Cl` was 15.8 nM; that for `Cc1cc(Br)ccc1N1CCN(Cc2ccc(F)cc2Cl)C(=O)C1=O` was 79.4 nM.
For the compound `CCN1C(=O)CC[C@H]1C(=O)NCc1ccccc1C#N`, the IC50 is 631 nM.
Take `Cc1cc(F)ccc1CN1CCN(c2ccccc2C)C(=O)C1=O`: the IC50 was 158 nM.
The value for `CN1C(=O)N(c2ncccn2)CC1C(=O)NCc1cccc(C(F)(F)F)c1Cl` (stereo not drawn) was 3.16 nM; that for `CN1[C@H](C(=O)NCc2ccc(Cl)cc2Cl)CCCS1(=O)=O` was 251 nM.
On to `Cc1ccncc1-n1nc(C)c(CC(=O)NCc2ccc(F)cc2Cl)c1C`, for which the IC50 was 398 nM.
The value for `Cc1cc(-c2nnc3n2CCN(C(=O)c2cccc(Cl)c2Cl)C3)no1` was 25.1 nM; that for `COc1ccc(-n2nc(C)c(CC(=O)NCc3ccc(F)cc3Cl)c2C)cn1` was 251 nM; that for `Cc1ccc(N2CCN(Cc3ccc(F)cc3Cl)C(=O)C2=O)c(C)c1` was 79.4 nM.
With `Cc1ccc(C(=O)N2CCn3c(nnc3-c3cnccn3)C2)c(C)c1`, the IC50 was 126 nM.
The value for `O=C(Cc1cn(CCO)nc1C(F)(F)F)NCc1ccc(F)cc1Cl` was 398 nM.
The value for `Cc1nnc2n1CCN(C(=O)c1cccc(C(F)(F)F)c1Cl)C2` was 31.6 nM.
As for `O=C(c1ccccc1Cl)N1CCn2c(-c3ccccc3)cnc2C1`, the IC50 was 50.1 nM.
With `O=C(c1cccc(C(F)(F)F)c1F)N1CCN(c2ccc(F)cc2Cl)C(=O)C1`, the IC50 was 63.1 nM.
The value for `O=C(c1ccc(F)cc1Cl)N1CCn2c(nnc2-c2cccc(F)c2F)C1` was 39.8 nM.
The value for `CN1C(=O)N(c2ccnc(F)c2)C[C@H]1C(=O)NCc1ccc(Cl)cc1Cl` was 31.6 nM; that for `Cc1cccnc1N1C[C@@H](C(=O)NCc2cccc(C(F)(F)F)c2Cl)N(C)C1=O` was 5.01 nM; that for `O=C(c1ccc(Cl)cc1Cl)N1CCn2cc(C(F)(F)F)nc2C1` was 794 nM.
The value for `CCN1C(=O)N(C)C[C@H]1C(=O)NCc1ccc(Cl)cc1Cl` was 1.58 nM; that for `CCN1[C@H](C(=O)NCc2ccc(Cl)cc2Cl)CCS1(=O)=O` was 15.8 nM.
Regarding `CN1C(=O)NC[C@H]1C(=O)NCc1c(F)cc(Cl)cc1Cl`, the IC50 is 15.8 nM.
The value for `Cc1ccc(C)c(N2CCN(Cc3ccc(F)cc3Cl)C(=O)C2=O)n1` was 200 nM.
The value for `CN1C(=O)N(c2cnccn2)C[C@H]1C(=O)NCc1cccc(C(F)(F)F)c1Cl` was 15.8 nM; that for `Cc1c(N2CCN(Cc3ccc(F)cc3Cl)C(=O)C2=O)cccc1-n1ccnc1` was 50.1 nM.
The value for `O=C(c1ccc(Cl)cc1Cl)N1CCn2c(-c3ccccc3)cnc2C1` was 20 nM.
For the compound `O=C1C(=O)N(c2ccccc2-c2ccccc2)CCN1Cc1ccc(F)cc1Cl`, the IC50 was 126 nM.
As for `CN1C[C@@H](C(=O)NCc2ccc(F)c(F)c2Cl)N(C)C1=O`, the IC50 was 3.16 nM.
The value for `Cc1nn(-c2ccccc2)c(C)c1CC(=O)NCc1cc(C(F)(F)F)ccc1Cl` was 501 nM; that for `O=C(NCc1cccc(C(F)(F)F)c1Cl)[C@H]1CCC(=O)N1Cc1ccccc1` was 31.6 nM; that for `O=C(c1cccc(Cl)c1Cl)N1CCN(c2cccc(Cl)c2)C(=O)C1` was 100 nM.
The value for `O=C(c1cccc(C(F)(F)F)c1Cl)N1CCN(c2cccc(N3CCOCC3)c2Cl)C(=O)C1` was 12.6 nM; that for `O=C(c1ccccc1C(F)(F)F)N1CCn2c(nnc2-c2ccccn2)C1` was 63.1 nM; that for `O=C(c1ccc(Cl)cc1Cl)N1CCn2c(nnc2-c2ccncn2)C1` was 31.6 nM.
As to `O=C(c1cccc(Cl)c1Cl)N1CCN(c2cc(N3CCOCC3)ccc2Cl)C(=O)C1`, the IC50 is 5.01 nM.
The value for `Cc1c(CC(=O)NCc2ccc(F)cc2Cl)c(C(C)C)nn1-c1ccccc1` was 251 nM.
The value for `CN1C(=O)N(c2nccc(C(F)(F)F)n2)C[C@H]1C(=O)NCc1ccc(Cl)cc1Cl` was 31.6 nM; that for `O=C(Cc1cn(CCNC2CCOCC2)nc1C(F)(F)F)NCc1ccc(F)cc1Cl` was 794 nM; that for `CCc1ccccc1N1CCN(Cc2ccc(F)cc2Cl)C(=O)C1=O` was 10 nM.
The value for `O=C1C(=O)N(c2ccccc2)CCN1Cc1ccc(F)cc1Cl` was 398 nM; that for `O=C(NCc1ccc(Cl)cc1Cl)C1COCC(=O)N1Cc1ccccc1` (stereo not drawn) was 501 nM.
With `O=C(c1cccc(Cl)c1F)N1CCN(c2ccc(F)cc2Cl)C(=O)C1`, the IC50 is 158 nM.
The value for `CCN1C(=O)CC[C@@H]1C(=O)NCc1ccc(F)c(F)c1Cl` was 200 nM; that for `O=C1C(=O)N(c2ccccc2C(F)(F)F)CCN1Cc1ccc(F)cc1Cl` was 15.8 nM.
The value for `CN1CCN(C(=O)c2ccc(F)cc2Cl)CC1=O` was 501 nM; that for `O=C(c1cccc(C(F)(F)F)c1Cl)N1CCn2c(Br)cnc2C1` was 10 nM; that for `Cc1nn(-c2ccccc2)c(C)c1CC(=O)NCc1cccc(Cl)c1C` was 31.6 nM.
The value for `O=C1C(=O)N(c2cc(Cl)ccc2N2CCOCC2)CCN1Cc1ccc(F)cc1Cl` was 31.6 nM; that for `O=C(c1cccc(C(F)(F)F)c1Cl)N1CCn2cc(C(F)(F)F)nc2C1` was 39.8 nM; that for `C[C@H]1CC(=O)N(C)[C@@H]1C(=O)NCc1cccc(C(F)(F)F)c1Cl` was 100 nM.
Take `Cc1nn(-c2ccccc2)c(C(C)C)c1CC(=O)NCc1ccc(F)cc1Cl`: the IC50 was 631 nM.
The value for `CN1C(=O)CC[C@H]1C(=O)NCc1c(Cl)cccc1Cl` was 126 nM; that for `Cc1c(N2CCCC2)cccc1N1CCN(C(=O)c2cccc(C(F)(F)F)c2Cl)CC1=O` was 10 nM; that for `CCN(CC)CCn1nc(C)c(CC(=O)NCc2ccc(F)cc2Cl)c1C` was 200 nM.
With `Cc1cnc2n1CCN(C(=O)c1cccc(C(F)(F)F)c1Cl)C2`, the IC50 was 50.1 nM.
The value for `O=C(NCc1cccc(C(F)(F)F)c1Cl)[C@H]1CCC(=O)N1Cc1ccccn1` was 63.1 nM.
The value for `Cc1c(Cl)cccc1CNC(=O)[C@@H]1CCS(=O)(=O)N1C(C)C` was 251 nM; that for `Cc1nn(CC(F)(F)F)c(C)c1CC(=O)NCc1ccc(F)cc1Cl` was 316 nM; that for `CC(C)CN1CCN(C(=O)c2cccc(C(F)(F)F)c2Cl)CC1=O` was 200 nM.
As to `Cc1ccccc1N1CCN(Cc2cc(Cl)ccc2Cl)C(=O)C1=O`, the IC50 was 1000 nM.
The value for `O=C(c1cccc(C(F)(F)F)c1Cl)N1CCn2c(nnc2-c2ccccc2)C1` was 3.16 nM.
The value for `COc1c(Br)cccc1N1CCN(Cc2ccc(F)cc2Cl)C(=O)C1=O` was 50.1 nM.
The value for `O=C(c1ccc(Cl)c(F)c1Cl)N1CCn2c(nnc2-c2cnccn2)C1` was 2 nM; that for `O=C1C(=O)N(c2cccc3c2CCCC3)CCN1Cc1ccc(F)cc1Cl` was 50.1 nM.
Turning to `O=C(NCc1cccc(C(F)(F)F)c1Cl)C1CC(=O)N(C2CC2)C1` (stereo not drawn), the IC50 is 31.6 nM.
Regarding `CN1C[C@@H](C(=O)NCc2cccc(C(F)(F)F)c2F)N(C)C1=O`, the IC50 was 7.94 nM.
The value for `Cc1ccccc1N1CCN(Cc2ccc(Cl)cc2Cl)C(=O)C1=O` was 10 nM.
The value for `O=C1C(=O)N(c2cc(Br)ccc2Cl)CCN1Cc1ccc(F)cc1Cl` was 10 nM.
The value for `O=C(c1cccc(C(F)(F)F)c1Cl)N1CCn2c(nnc2C2CC2)C1` was 31.6 nM; that for `CN1C(=O)CC[C@H]1C(=O)NCc1cccc(F)c1C(F)(F)F` was 200 nM.
Turning to `O=C1C(=O)N(c2cccc3ccccc23)CCN1Cc1c(F)cccc1Cl`, the IC50 is 631 nM.
The value for `CC1CC(=O)N(C)[C@@H]1C(=O)NCc1cccc(C(F)(F)F)c1Cl` (stereo partly drawn) was 25.1 nM; that for `Cc1ccc(N2C[C@@H](C(=O)NCc3cccc(C(F)(F)F)c3Cl)N(C)C2=O)cn1` was 10 nM; that for `Cn1ccnc1-c1nnc2n1CCN(C(=O)c1ccc(F)cc1Cl)C2` was 316 nM.
